Experimental data as given in patent publication US20090069370A1, “AZACYCLYLISOQUINOLINONE AND ISOINDOLINONE DERIVATIVES AS HISTAMINE-3 ANTAGONISTS” (Wyeth, priority 2007, published 2009).
Structures can show the parent of a compound that is named as a salt.

Row | SMILES | melting point
1 | CCNC(=O)c1ccc(-c2ccc3c(c2)CCN([C@@H]2CCN(C4CCCC4)C2)C3=O)cc1 (as salt: hydrochloride) [Example 42, 4-{2-[(3R)-1-cyclopentylpyrrolidin-3-yl]-1-oxo-1,2,3,4-tetrahydroisoquinolin-6-yl}-N-ethylbenzamide] | > 200 °C
2 | O=C(c1ccc(-c2ccc3c(c2)CCN([C@@H]2CCN(C4CCCC4)C2)C3=O)cc1)N1CCCC1 (as salt: hydrochloride) [Example 43, 2-[(3R)-1-cyclopentylpyrrolidin-3-yl]-6-[4-(pyrrolidin-1-ylcarbonyl)phenyl]-3,4-dihydroisoquinolin-1(2H)-one] | > 200 °C
3 | CNC(=O)c1ccc(-c2ccc3c(c2)CCN([C@@H]2CCN(C4CCC4)C2)C3=O)cc1 (as salt: hydrochloride) [Example 44, 4-{2-[(3R)-1-cyclobutylpyrrolidin-3-yl]-1-oxo-1,2,3,4-tetrahydroisoquinolin-6-yl}-N-methylbenzamide] | 263 to 265 °C
4 | CCNC(=O)c1ccc(-c2ccc3c(c2)CCN([C@@H]2CCN(C4CCC4)C2)C3=O)cc1 (as salt: hydrochloride) [Example 45, 4-{2-[(3R)-1-cyclobutylpyrrolidin-3-yl]-1-oxo-1,2,3,4-tetrahydroisoquinolin-6-yl}-N-ethylbenzamide] | 268 to 272 °C
5 | CN(C)C(=O)c1ccc(-c2ccc3c(c2)CCN([C@@H]2CCN(C4CCC4)C2)C3=O)cc1 (as salt: hydrochloride) [Example 46, 4-{2-[(3R)-1-cyclobutylpyrrolidin-3-yl]-1-oxo-1,2,3,4-tetrahydroisoquinolin-6-yl}-N,N-dimethylbenzamide] | 211 to 212 °C
6 | O=C(c1ccc(-c2ccc3c(c2)CCN([C@@H]2CCN(C4CCC4)C2)C3=O)cc1)N1CCCC1 (as salt: hydrochloride) [Example 47, 2-[(3R)-1-cyclobutylpyrrolidin-3-yl]-6-[4-(pyrrolidin-1-ylcarbonyl)phenyl]-3,4-dihydroisoquinolin-1(2H)-one] | 215 to 217 °C
7 | O=C(c1ccc(-c2ccc3c(c2)CCN([C@@H]2CCN(C4CCC4)C2)C3=O)cc1F)N1CCCC1 (as salt: hydrochloride) [Example 48, 2-[(3R)-1-cyclobutylpyrrolidin-3-yl]-6-[3-fluoro-4-(pyrrolidin-1-ylcarbonyl)phenyl]-3,4-dihydroisoquinolin-1(2H)-one] | 235 to 236 °C
8 | O=C(c1ccc(-c2ccc3c(c2)CCN([C@@H]2CCN(C4CCC4)C2)C3=O)cc1Cl)N1CCCC1 (as salt: hydrochloride) [Example 49, 6-[3-chloro-4-(pyrrolidin-1-ylcarbonyl)phenyl]-2-[(3R)-1-cyclobutylpyrrolidin-3-yl]-3,4-dihydroisoquinolin-1(2H)-one] | 198 to 200 °C
9 | O=C1c2ccc(-c3ccccc3)cc2CCN1[C@@H]1CCN(C2CCC2)C1 (as salt: hydrochloride) [Example 50, 2-[(3R)-1-cyclobutylpyrrolidin-3-yl]-6-phenyl-3,4-dihydroisoquinolin-1(2H)-one] | > 255 °C
10 | O=C1c2ccc(-c3ccc(F)cc3)cc2CCN1[C@@H]1CCN(C2CCC2)C1 (as salt: hydrochloride) [Example 51, 2-[(3R)-1-cyclobutylpyrrolidin-3-yl]-6-(4-fluorophenyl)-3,4-dihydroisoquinolin-1(2H)-one] | 231 to 233 °C
11 | O=C(c1cccc(-c2ccc3c(c2)CCN([C@@H]2CCN(C4CCC4)C2)C3=O)c1)N1CCCC1 (as salt: hydrochloride) [Example 52, 2-[(3R)-1-cyclobutylpyrrolidin-3-yl]-6-[3-(pyrrolidin-1-ylcarbonyl)phenyl]-3,4-dihydroisoquinolin-1(2H)-one] | 203 to 205 °C
12 | CN1CC[C@@H](N2CCc3cc(-c4ccc(C(=O)N5CCCC5)cc4)ccc3C2=O)C1 (as salt: hydrochloride) [Example 55, 2-[(3R)-1-methylpyrrolidin-3-yl]-6-[4-(pyrrolidin-1-ylcarbonyl)phenyl]-3,4-dihydroisoquinolin-1(2H)-one] | > 230 °C
13 | CC(C)N1CC[C@@H](N2CCc3cc(-c4ccc(C(=O)N5CCCC5)cc4)ccc3C2=O)C1 (as salt: hydrochloride) [Example 56, 2-[(3R)-1-(1-methylethyl)pyrrolidin-3-yl]-6-[4-(pyrrolidin-1-ylcarbonyl)phenyl]-3,4-dihydroisoquinolin-1(2H)-one] | 220 to 222 °C
14 | O=C(c1ccc(-c2ccc3c(c2)CCN([C@@H]2CCN(C4CCCCC4)C2)C3=O)cc1)N1CCCC1 (as salt: hydrochloride) [Example 57, 2-[(3R)-1-cyclohexylpyrrolidin-3-yl]-6-[4-(pyrrolidin-1-ylcarbonyl)phenyl]-3,4-dihydroisoquinolin-1(2H)-one] | 279 to 281 °C
15 | O=C(c1ccc(-c2ccc3c(c2)CCN([C@@H]2CCN(CC4CC4)C2)C3=O)cc1)N1CCCC1 (as salt: hydrochloride) [Example 58, 2-[(3R)-1-(cyclopropylmethyl)pyrrolidin-3-yl]-6-[4-(pyrrolidin-1-ylcarbonyl)phenyl]-3,4-dihydroisoquinolin-1(2H)-one] | 287 to 288 °C
16 | O=C(c1ccc(-c2ccc3c(c2)CCN([C@@H]2CCN(CC4CCCC4)C2)C3=O)cc1)N1CCCC1 (as salt: hydrochloride) [Example 59, 2-[(3R)-1-(cyclopentylmethyl)pyrrolidin-3-yl]-6-[4-(pyrrolidin-1-ylcarbonyl)phenyl]-3,4-dihydroisoquinolin-1(2H)-one] | 288 to 290 °C
17 | O=C(c1ccc(-c2ccc3c(c2)CCN([C@@H]2CCN(Cc4ccoc4)C2)C3=O)cc1)N1CCCC1 (as salt: hydrochloride) [Example 60, 2-[(3R)-1-(furan-3-ylmethyl)pyrrolidin-3-yl]-6-[4-(pyrrolidin-1-ylcarbonyl)phenyl]-3,4-dihydroisoquinolin-1(2H)-one] | 254 to 256 °C
18 | O=C(c1ccc(-c2ccc3c(c2)CCN([C@@H]2CCN(Cc4ccco4)C2)C3=O)cc1)N1CCCC1 (as salt: hydrochloride) [Example 61, 2-[(3R)-1-(furan-2-ylmethyl)pyrrolidin-3-yl]-6-[4-(pyrrolidin-1-ylcarbonyl)phenyl]-3,4-dihydroisoquinolin-1(2H)-one] | 254 to 256 °C
19 | O=C(c1ccc(-c2ccc3c(c2)CCN([C@@H]2CCN(Cc4cccs4)C2)C3=O)cc1)N1CCCC1 (as salt: hydrochloride) [Example 62, 6-[4-(pyrrolidin-1-ylcarbonyl)phenyl]-2-[(3R)-1-(thiophen-2-ylmethyl)pyrrolidin-3-yl]-3,4-dihydroisoquinolin-1(2H)-one] | 249 to 250 °C
20 | O=C(c1ccc(-c2ccc3c(c2)CCN(C2CCN(C4CCC4)CC2)C3=O)cc1)N1CCCC1 (as salt: hydrochloride) [Example 65, 2-(1-cyclobutylpiperidin-4-yl)-6-[4-(pyrrolidin-1-ylcarbonyl)phenyl]-3,4-dihydroisoquinolin-1(2H)-one] | > 300 °C
21 | O=C(c1ccc(-c2ccc3c(c2)CCN(C2CCN(C4CCCC4)CC2)C3=O)cc1)N1CCCC1 (as salt: hydrochloride) [Example 66, 2-(1-cyclopentylpiperidin-4-yl)-6-[4-(pyrrolidin-1-ylcarbonyl)phenyl]-3,4-dihydroisoquinolin-1(2H)-one] | > 300 °C
22 | CC(C)N1CCC(N2CCc3cc(-c4ccc(C(=O)N5CCCC5)cc4)ccc3C2=O)CC1 (as salt: hydrochloride) [Example 67, 2-(1-isopropylpiperidin-4-yl)-6-[4-(pyrrolidin-1-ylcarbonyl)phenyl]-3,4-dihydroisoquinolin-1(2H)-one] | > 300 °C
23 | O=C(c1ccc(-c2ccc3c(c2)CCN([C@@H]2CCCN(C4CCC4)C2)C3=O)cc1)N1CCCC1 (as salt: hydrochloride) [Example 70, 2-[(3R)-1-cyclobutylpiperidin-3-yl]-6-[4-(pyrrolidin-1-ylcarbonyl)phenyl]-3,4-dihydroisoquinolin-1(2H)-one] | 260.5 to 262 °C
24 | O=C(c1ccc(-c2ccc3c(c2)CCN([C@@H]2CCCN(C4CCCC4)C2)C3=O)cc1)N1CCCC1 (as salt: hydrochloride) [Example 71, 2-[(3R)-1-cyclopentylpiperidin-3-yl]-6-[4-(pyrrolidin-1-ylcarbonyl)phenyl]-3,4-dihydroisoquinolin-1(2H)-one] | > 250 °C
25 | CC(C)N1CCC[C@@H](N2CCc3cc(-c4ccc(C(=O)N5CCCC5)cc4)ccc3C2=O)C1 (as salt: hydrochloride) [Example 72, 2-[(3R)-1-isopropylpiperidin-3-yl]-6-[4-(pyrrolidin-1-ylcarbonyl)phenyl]-3,4-dihydroisoquinolin-1(2H)-one] | 274 to 275 °C
26 | C[C@H]1CCCN1C(=O)c1ccc(-c2ccc3c(c2)CCN([C@@H]2CCN(C4CCC4)C2)C3=O)c(F)c1 (as salt: hydrochloride) [Example 73, 2-[(3R)-1-cyclobutylpyrrolidin-3-yl]-6-(2-fluoro-4-{[(2S)-2-methylpyrrolidin-1-yl]carbonyl}phenyl)-3,4-dihydroisoquinolin-1(2H)-one] | 212 to 213 °C
27 | O=C(NC1CCC1)c1ccc(-c2ccc3c(c2)CCN([C@@H]2CCN(C4CCC4)C2)C3=O)c(F)c1 (as salt: hydrochloride) [Example 74, N-cyclobutyl-4-{2-[(3R)-1-cyclobutylpyrrolidin-3-yl]-1-oxo-1,2,3,4-tetrahydroisoquinolin-6-yl}-3-fluorobenzamide] | > 230 °C
28 | CNC(=O)c1ccc(-c2ccc3c(c2)CCN([C@@H]2CCN(C4CCC4)C2)C3=O)c(F)c1 (as salt: hydrochloride) [Example 75, 4-{2-[(3R)-1-cyclobutylpyrrolidin-3-yl]-1-oxo-1,2,3,4-tetrahydroisoquinolin-6-yl}-3-fluoro-N-methylbenzamide] | 220 to 221 °C
29 | C[C@@H]1CCCN1C(=O)c1ccc(-c2ccc3c(c2)CCN([C@@H]2CCN(C4CCC4)C2)C3=O)c(F)c1 (as salt: hydrochloride) [Example 76, 2-[(3R)-1-cyclobutylpyrrolidin-3-yl]-6-(2-fluoro-4-{[(2R)-2-methylpyrrolidin-1-yl]carbonyl}phenyl)-3,4-dihydroisoquinolin-1(2H)-one] | 239 to 241 °C
